Assay results from patent publication US12590100B2, “Tetrahydro-spiroindoline-pyrrolopyrrole-triones inhibitors of the NRF2-β-TrCP interaction for use in the treatment of fatty liver disease” (Universidad Autonoma De Madrid, priority 2021, dated 2026).

What was measured:
[1] = test system: transcriptional activity of NRF2; test: ARE luciferase reporter assay in MCF-7 c32 ARE-LUC cells; format: cell-based; settings: 9 μM, 16 h
Method: FIG. 4. […] MEFs in serum-depleted conditions were subjected to (A-C) 1 μM, 3 μM, or 10 μM of PHAR and 10 μM of SFN as a positive control for 16 h; or (D-F) 10 μM of PHAR for the indicated times. In both experiments, 0.1% DMSO was used as a vehicle. A), representative immunoblots of NRF2, HO1, KEAP1, LAMINB, and GAPDH as loading controls. B) and C), densitometric analysis of NRF2 and HO1 protein levels of the representative immunoblots depicted in (A), expressed as a ratio of NRF2/LAMINB or HO1/GAPDH. The data is depicted as means±SEM (n=3). Statistical analysis was performed with one-way ANOVA followed by the Bonferroni test to check inter-group differences. *p<0.05; ***p<0.001 vs. 0. D), representative immunoblots of NRF2, HO1, KEAP1, LAMINB, and GAPDH as loading controls. E) and F), Densitometric analysis of NRF2 and HO1 protein levels of the representative immunoblots of (D), expressed as a ratio of NRF2/LAMINB or HO1/GAPDH. The data is depicted as means±SEM (n=3). Statistical analysis was performed with one-way ANOVA followed by the Bonferroni test to check inter-group differences. *p<0.05; ***p<0.001 vs. 0. […] Luciferase activity was measured after 16 h of treatment. […] The mRNA levels of Hmox1, Nqo1, Aox1, Glc, and Gclm after 8 h of treatment were determined by means of pRT-PCR and normalized by means of average LaminB, Gapdh, and β-actin. […]

[2] = test system: NRF2; test: NRF2 and HO-1 protein levels in mouse tissues after IP treatment; format: in vivo; settings: C57BL/6 mice
Method: FIG. 9. PHAR activates NRF2 and HO-1 in liver. A), UV and MS spectrum derived from the HPLC-MS analysis of PHAR dissolved in methanol for the identification of peaks associated with the compound. A blue rectangle surrounds the mass associated with PHAR. (B-D), the mice were treated with the vehicle (Tween-80+PBS, 1:13), 50 mg/kg of PHAR, or 50 mg/kg of SFN (saline) as a positive control by means of intraperitoneal (IP) injection for 2 hours. B), HPLC-MS UV and MS spectra derived from representative liver samples of both experimental groups used for determining PHAR levels in the liver 120 min after a single IP injection of 50 mg/kg. A blue rectangle surrounds the mass associated with PHAR. C), representative immunoblots showing NRF2, HO1, and LAMINB protein levels as the liver extract loading control. D), densitometric analysis of NRF2 protein levels of the representative immunoblots shown in (C), expressed as a ratio of NRF2/LAMINB. Statistical analysis was performed with one-way ANOVA followed by the Bonferroni test to compare inter-group differences. ***p<0.001 vs. vehicle. E) and F), the mice were treated daily with vehicle (Tween-80+PBS, 1:13) or 50 mg/kg of PHAR by means of intraperitoneal injection for 5 days. E), representative immunoblots showing NRF2, HO1, and LAMINB protein levels as loading control in brain, liver and kidney. F), densitometric analysis of NRF2 and HO1 protein levels in the liver tissue of the representative immunoblots shown in (E), expressed as a ratio of NRF2/LAMINB or HO1/LAMINB levels. Statistical analysis was performed with a Student t test to compare inter-group differences. **p<0.01 vs. vehicle.
Once the mechanism of action of PHAR was deciphered, the capacity thereof to induce NRF2 levels in a murine model was evaluated. C57BL/6 mice received a single intraperitoneal (IP) injection of 50 mg/kg PHAR (Tween-80+PBS, 1:13) or 50 mg/kg of SFN (saline) as a positive control. The UV spectrum derived from the HPLC-MS study of the PHAR compound dissolved in methanol alone helped the identification of the peak associated with the compound for subsequent identification in the tissue analysis. […] Taking this as a reference point, liver tissue analysis was performed to check for the presence of PHAR therein.
For this reason, C57BL/6 mice were treated daily by IP route for 5 days with 50 mg/kg of vehicle or 50 mg/kg of PHAR.

SMILES: O=C1[C@@H]2[C@H](Cc3c[nH]c4ccccc34)N[C@]3(C(=O)Nc4ccc(Cl)cc43)[C@@H]2C(=O)N1c1ccc2c(c1)OCCO2 [PHAR]
- increase in luciferase activity [1]: ~4 fold
- HO1 levels in kidney ([2]; IP 50 mg/kg daily for 5 days): not further increased
- NRF2 and HO1 levels in brain ([2]; IP 50 mg/kg daily for 5 days): not modified
- NRF2 and HO-1 in liver ([2]; IP 50 mg/kg daily for 5 days, 120 minutes after last administration): significant increase of NRF2 and HO-1 in liver
- liver HO-1 levels ([2]; single IP 50 mg/kg, 120 min): did not result in increased HO-1 levels
- liver NRF2 levels ([2]; single IP 50 mg/kg, 120 min): significant NRF2 accumulation
